This passage reports GI50 and TGI results from PubChem BioAssay (NCI).

Where “and” joins values, the source holds several entries; their conditions need not be identical. Equal values may be shown once.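 Assay format: 96-well plates, 48-hour exposure. GI50 = concentration required for 50% inhibition of growth. TGI denotes the concentration required for complete inhibition of growth.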

Test systems include HOP-62 NSCLC; A498 renal; NCI-H460 lung; MCF7 breast; ACHN renal; U251 CNS; OVCAR-8 ovarian; SN12C renal; HCT-116 colon; SK-MEL-5 melanoma.
What all share (test): NCI tumour cell line growth inhibition, 48 h

Turning to `O=C(/C(=C/c1ccc([N+](=O)[O-])cc1)c1ccccc1)c1ccccc1`, the GI50 in the experiment on HOP-62 NSCLC is 2.78 µM; in the experiment with A498 renal it was 1.98 µM; in the experiment with NCI-H460 lung it was 2.34 µM; in the experiment on MCF7 breast it was 3.2 µM. Further, the TGI in the experiment on HOP-62 NSCLC is 6.12 µM; in the experiment on A498 renal it was 8.86 µM; with NCI-H460 lung, 5.93 µM; in the experiment with MCF7 breast it was greater than 100 µM.

Turning to `CS(=O)(=O)c1ccc(C(=O)Nc2ccc(Cl)c(-c3ccccn3)c2)c(Cl)c1`, the TGI is > 100 µM and 19.3 µM in the experiment on HOP-62 NSCLC; > 100 µM and 23.5 µM with ACHN renal; > 100 µM and 15.8 µM in the experiment with U251 CNS; > 100 µM and 46.3 µM with A498 renal; > 100 µM and 25.5 µM in the experiment with OVCAR-8 ovarian; > 100 µM and 51.3 µM in the experiment with SN12C renal. For the same compound, in the experiment with MCF7 breast, the TGI was > 100 µM and 14.9 µM.

Take `O=C1c2ccccc2-c2c1c1ccc([N+](=O)[O-])cc1c(=O)n2CCCBr`: the GI50 with HCT-116 colon is 3.43 µM; with ACHN renal, greater than 100 µM; in the experiment on U251 CNS, greater than 100 µM; in the experiment with OVCAR-8 ovarian, greater than 100 µM; in the experiment on SN12C renal, greater than 100 µM; in the experiment on MCF7 breast it was 0.153 µM. The TGI with HCT-116 colon, in the experiment on ACHN renal, in the experiment on U251 CNS, in the experiment with OVCAR-8 ovarian, with SN12C renal and in the experiment on MCF7 breast was greater than 100 µM in each case.

As for `O[C@H]1CO[C@H]2[C@@H]1OC[C@@H]2Oc1ccc(Nc2ccnc(Nc3ccc(O[C@H]4CO[C@H]5[C@@H]4OC[C@@H]5O)c(Cl)c3)n2)cc1Cl`, the GI50 is 2.24 µM in the experiment with HCT-116 colon; 1.71 µM in the experiment with HOP-62 NSCLC; 2.8 µM in the experiment with ACHN renal; 1.17 µM in the experiment with SK-MEL-5 melanoma; 1.62 µM in the experiment with U251 CNS; 1.38 µM in the experiment on OVCAR-8 ovarian. Moreover, the results for the GI50 in the experiment on NCI-H460 lung, with SN12C renal and with MCF7 breast were 1.4 µM, 1.59 µM and 1.73 µM, respectively. Further, the TGI in the experiment with HCT-116 colon came to 9.12 µM; with HOP-62 NSCLC it was 4.03 µM; in the experiment with ACHN renal, 10.6 µM; with SK-MEL-5 melanoma it was 2.43 µM; with U251 CNS, 4.02 µM; in the experiment with OVCAR-8 ovarian it was 11.3 µM. Moreover, the TGI with NCI-H460 lung turned out to be 3.05 µM; in the experiment with SN12C renal it was 6.15 µM; with MCF7 breast it was 5.44 µM.

With `COc1ccc(C2CC(c3cc(OC)c(OC)c(OC)c3)=NN2C(C)=O)cc1OCC(=O)Nc1nc2ccc(C(F)(F)F)cc2s1` (stereo unspecified), the GI50 is 2.2 µM with HOP-62 NSCLC; 2.48 µM with ACHN renal; 3.56 µM in the experiment on SK-MEL-5 melanoma; 3.08 µM in the experiment with U251 CNS; 2.78 µM with A498 renal; 3.36 µM in the experiment with OVCAR-8 ovarian. Also, the GI50 in the experiment on SN12C renal was 3.31 µM; in the experiment on MCF7 breast it was 4.02 µM. The TGI in the experiment on HOP-62 NSCLC is 5.58 µM; in the experiment with ACHN renal, 7.13 µM; in the experiment on SK-MEL-5 melanoma it was greater than 100 µM; with U251 CNS, 9.9 µM; in the experiment with A498 renal, 9.7 µM; with OVCAR-8 ovarian, greater than 100 µM. For the same compound, the TGI in the experiment with SN12C renal and with MCF7 breast was greater than 100 µM each time.

As to `C=C1CC[C@@H]2[C@](C)(COC(C)=O)[C@@H](O)CC[C@@]2(C)[C@@H]1COc1ccc2ccc(=O)oc2c1`, the GI50 is greater than 100 µM in the experiment with HCT-116 colon; greater than 100 µM in the experiment on HOP-62 NSCLC; greater than 100 µM with ACHN renal; greater than 100 µM in the experiment on SK-MEL-5 melanoma; 61.2 µM in the experiment with U251 CNS; greater than 100 µM in the experiment on OVCAR-8 ovarian. Moreover, the GI50 with NCI-H460 lung, with SN12C renal and in the experiment on MCF7 breast was greater than 100 µM each time. Also, the TGI in the experiment with HCT-116 colon, with HOP-62 NSCLC, with ACHN renal, in the experiment on SK-MEL-5 melanoma, in the experiment on U251 CNS and in the experiment with OVCAR-8 ovarian was greater than 100 µM each time. For the same compound, the TGI with NCI-H460 lung, in the experiment with SN12C renal and with MCF7 breast was greater than 100 µM each time.

Turning to `Cn1c2c(cc(S(=O)(=O)c3ccccc3)c1=O)CCc1c-2cnn1-c1ccc(Cl)cc1`, the GI50 is 4.14 µM with HCT-116 colon; 2.93 µM with HOP-62 NSCLC; 1.98 µM in the experiment with ACHN renal; 2.1 µM in the experiment on U251 CNS; 1.06 µM with A498 renal; 2.73 µM in the experiment with OVCAR-8 ovarian. For the same compound, in the experiment with MCF7 breast, the GI50 is 4.59 µM. The TGI in the experiment with HCT-116 colon was greater than 100 µM; with HOP-62 NSCLC it was 7.61 µM; with ACHN renal it was 3.88 µM; in the experiment with U251 CNS, 3.98 µM; in the experiment with A498 renal it was 5.03 µM; with OVCAR-8 ovarian, 6.22 µM. This compound also gave a TGI in the experiment on MCF7 breast greater than 100 µM.

With `CC(C)CC(CC1=CCC2CC1C2(C)C)C1=C(O)C(C)(C)C(=O)C(C)(C)C1=O` (stereo unspecified), the GI50 was 0.376 µM in the experiment on HCT-116 colon; 0.303 µM in the experiment with HOP-62 NSCLC; 0.352 µM with ACHN renal; 0.206 µM in the experiment on SK-MEL-5 melanoma; 0.335 µM in the experiment with U251 CNS; 0.236 µM in the experiment with A498 renal. Further, the GI50 was 0.379 µM in the experiment with OVCAR-8 ovarian, 0.324 µM in the experiment on SN12C renal and 0.303 µM with MCF7 breast. For the same compound, the TGI is 1.46 µM in the experiment with HCT-116 colon; 1.14 µM in the experiment on HOP-62 NSCLC; 3.58 µM in the experiment on ACHN renal; 0.468 µM with SK-MEL-5 melanoma; greater than 100 µM in the experiment on U251 CNS; 0.651 µM with A498 renal. Besides, the TGI in the experiment on OVCAR-8 ovarian, in the experiment with SN12C renal and in the experiment on MCF7 breast was greater than 100 µM in each case.
